According to publication PMC5218480 (PLoS ONE, 2017):

System: MV-4-11 cells
Assay: Gene expression microarray analysis (Affymetrix PrimeView) and GSEA
Assay type: cell-based, human
Parameters: RFU PODN (11730768_x_at) / Fold change /veh PODN (11730768_x_at) / RFU LINC00158 (11744669_a_at) / Fold change /veh LINC00158 (11744669_a_at) / RFU DUSP10 (11751237_a_at) / Fold change /veh DUSP10 (11751237_a_at) / RFU ID3 (11757404_x_at) / Fold change /veh ID3 (11757404_x_at) / RFU PLEKHG5 (11737974_s_at) / Fold change /veh PLEKHG5 (11737974_s_at) / RFU LRRC4B (11730491_at) / Fold change /veh LRRC4B (11730491_at) / RFU GIMAP4 (11747438_a_at) / Fold change /veh GIMAP4 (11747438_a_at) / RFU KRT8 (11758183_x_at) / Fold change /veh KRT8 (11758183_x_at) / RFU CNN1 (11734310_a_at) / Fold change /veh CNN1 (11734310_a_at) / RFU VPS37D (11726825_at) / Fold change /veh VPS37D (11726825_at) / RFU C10orf10 (11716522_x_at) / Fold change /veh C10orf10 (11716522_x_at) / RFU KIR2DL2 /// KIR2DL4 /// KIR2DL5A /// KIR2DL5B /// KIR2DS1 /// KIR2DS2 /// KIR2DS3 /// KIR2DS4 /// KIR3DL3 /// KIR3DL3 /// KIR3DS1 (11738374_at) / Fold change /veh KIR2DL2 /// KIR2DL4 /// KIR2DL5A /// KIR2DL5B /// KIR2DS1 /// KIR2DS2 /// KIR2DS3 /// KIR2DS4 /// KIR3DL3 /// KIR3DL3 /// KIR3DS1 (11738374_at) / RFU C1QL1 (11718748_at) / Fold change /veh C1QL1 (11718748_at) / RFU TMPRSS4 (11747572_a_at) / Fold change /veh TMPRSS4 (11747572_a_at) / RFU HAMP (11756126_x_at) / Fold change /veh HAMP (11756126_x_at) / RFU RNFT2 (11725882_a_at) / Fold change /veh RNFT2 (11725882_a_at) / RFU NR4A2 (11747474_a_at) / Fold change /veh NR4A2 (11747474_a_at) / RFU ABCC12 (11746883_a_at) / Fold change /veh ABCC12 (11746883_a_at) / RFU TMEM136 (11760407_x_at) / Fold change /veh TMEM136 (11760407_x_at) / RFU CLDN22 /// WWC2 (11732394_at) / Fold change /veh CLDN22 /// WWC2 (11732394_at) / RFU HLA-DPB1 (11760878_x_at) / Fold change /veh HLA-DPB1 (11760878_x_at) / RFU SPINT1 (11716480_a_at) / Fold change /veh SPINT1 (11716480_a_at) / RFU GAP43 (11754022_s_at) / Fold change /veh GAP43 (11754022_s_at) / RFU A4GNT (11735810_at) / Fold change /veh A4GNT (11735810_at) / RFU PRB3 (11715151_x_at) / Fold change /veh PRB3 (11715151_x_at) / RFU TUBB4B (11761932_at) / Fold change /veh TUBB4B (11761932_at) / RFU CAPN14 (11732068_a_at) / Fold change /veh CAPN14 (11732068_a_at) / RFU TMCC2 (11721928_a_at) / Fold change /veh TMCC2 (11721928_a_at) / RFU IRGQ (11745062_a_at) / Fold change /veh IRGQ (11745062_a_at) / RFU FAM174B (11720279_a_at) / Fold change /veh FAM174B (11720279_a_at) / RFU TMPRSS4 (11748680_a_at) / Fold change /veh TMPRSS4 (11748680_a_at) / RFU FAM212B (11763350_a_at) / Fold change /veh FAM212B (11763350_a_at) / RFU PLEKHG5 (11743358_a_at) / Fold change /veh PLEKHG5 (11743358_a_at) / RFU ZSCAN30 (11745921_a_at) / Fold change /veh ZSCAN30 (11745921_a_at) / RFU CMKLR1 (11741424_a_at) / Fold change /veh CMKLR1 (11741424_a_at) / RFU LOC101060620 /// MAPK8IP1 (11723275_at) / Fold change /veh LOC101060620 /// MAPK8IP1 (11723275_at) / RFU SPTSSB (11747773_x_at) / Fold change /veh SPTSSB (11747773_x_at) / RFU PRSS12 (11739890_at) / Fold change /veh PRSS12 (11739890_at) / RFU BIN1 (11741810_x_at) / Fold change /veh BIN1 (11741810_x_at) / RFU WNT11 (11732464_a_at) / Fold change /veh WNT11 (11732464_a_at) / RFU C10orf10 (11716521_a_at) / Fold change /veh C10orf10 (11716521_a_at) / RFU C5orf56 (11738089_at) / Fold change /veh C5orf56 (11738089_at) / RFU CYB561 (11721691_x_at) / Fold change /veh CYB561 (11721691_x_at) / RFU ANKRD19P (11752326_a_at) / Fold change /veh ANKRD19P (11752326_a_at) / RFU OR2T12 /// OR2T33 /// OR2T8 (11738714_s_at) / Fold change /veh OR2T12 /// OR2T33 /// OR2T8 (11738714_s_at) / RFU VCAN (11748164_a_at) / Fold change /veh VCAN (11748164_a_at) / RFU JSRP1 (11732532_at) / Fold change /veh JSRP1 (11732532_at) / RFU KRTAP10-11 (11738290_x_at) / Fold change /veh KRTAP10-11 (11738290_x_at) / RFU MYO3A (11730013_a_at) / Fold change /veh MYO3A (11730013_a_at) / RFU EBF3 (11725865_a_at) / Fold change /veh EBF3 (11725865_a_at) / RFU CAMK2N1 (11719241_x_at) / Fold change /veh CAMK2N1 (11719241_x_at) / RFU C5orf56 (11738088_a_at) / Fold change /veh C5orf56 (11738088_a_at) / RFU OLFML3 (11715873_a_at) / Fold change /veh OLFML3 (11715873_a_at) / RFU LOC100653217 /// NTM (11731650_a_at) / Fold change /veh LOC100653217 /// NTM (11731650_a_at) / RFU MAPK11 (11762145_a_at) / Fold change /veh MAPK11 (11762145_a_at) / RFU FIZ1 (11724087_x_at) / Fold change /veh FIZ1 (11724087_x_at) / RFU OASL (11726364_x_at) / Fold change /veh OASL (11726364_x_at) / RFU SOX15 (11748057_x_at) / Fold change /veh SOX15 (11748057_x_at) / RFU CD79A (11719716_a_at) / Fold change /veh CD79A (11719716_a_at) / RFU HIST1H1D (11736915_at) / Fold change /veh HIST1H1D (11736915_at) / RFU CASKIN2 (11723855_a_at) / Fold change /veh CASKIN2 (11723855_a_at) / RFU LOC730098 (11760151_x_at) / Fold change /veh LOC730098 (11760151_x_at) / RFU OR4N2 (11742367_at) / Fold change /veh OR4N2 (11742367_at) / RFU PRRT2 (11749266_a_at) / Fold change /veh PRRT2 (11749266_a_at) / RFU SNX32 (11753110_a_at) / Fold change /veh SNX32 (11753110_a_at) / RFU CDHR5 (11726645_a_at) / Fold change /veh CDHR5 (11726645_a_at) / RFU RCAN1 (11760418_a_at) / Fold change /veh RCAN1 (11760418_a_at) / RFU FAM167A (11723789_a_at) / Fold change /veh FAM167A (11723789_a_at) / RFU FAM26E (11764081_at) / Fold change /veh FAM26E (11764081_at) / RFU ISYNA1 (11749810_s_at) / Fold change /veh ISYNA1 (11749810_s_at) / RFU ACY1 (11761880_at) / Fold change /veh ACY1 (11761880_at) / RFU 11764098_at / Fold change /veh 11764098_at / RFU SAMD14 (11745864_x_at) / Fold change /veh SAMD14 (11745864_x_at) / RFU NPB (11741838_a_at) / Fold change /veh NPB (11741838_a_at) / RFU TMPRSS6 (11731388_a_at) / Fold change /veh TMPRSS6 (11731388_a_at) / RFU KRTAP10-2 (11738614_at) / Fold change /veh KRTAP10-2 (11738614_at) / RFU ARHGAP8 /// PRR5-ARHGAP8 (11727945_x_at) / Fold change /veh ARHGAP8 /// PRR5-ARHGAP8 (11727945_x_at) / RFU KRTAP5-7 /// NADSYN1 (11734609_at) / Fold change /veh KRTAP5-7 /// NADSYN1 (11734609_at) / RFU RASL12 (11751679_a_at) / Fold change /veh RASL12 (11751679_a_at) / RFU CDKN2B (11736163_a_at) / Fold change /veh CDKN2B (11736163_a_at) / RFU PRF1 (11729649_at) / Fold change /veh PRF1 (11729649_at) / RFU, ZNF638 /// ZNF638-IT1 / Fold change vs veh, ZNF638 /// ZNF638-IT1 / RFU, PANK3 / Fold change vs veh, PANK3 / RFU, SH3YL1 / Fold change vs veh, SH3YL1 / RFU, ZEB2 / Fold change vs veh, ZEB2 / RFU, NRIP1 / Fold change vs veh, NRIP1 / RFU, PTTG1IP / Fold change vs veh, PTTG1IP / RFU, CAPN2 / Fold change vs veh, CAPN2 / RFU, MED14 / Fold change vs veh, MED14 / RFU, SNORA58 / Fold change vs veh, SNORA58 / RFU, C1orf63 / Fold change vs veh, C1orf63 / RFU, LRRFIP1 / Fold change vs veh, LRRFIP1 / RFU, NDUFAF7 / Fold change vs veh, NDUFAF7 / RFU, SLC12A2 / Fold change vs veh, SLC12A2 / RFU, IBTK / Fold change vs veh, IBTK / RFU, ESF1 / Fold change vs veh, ESF1 / Fold change vs veh, TMEM50B / RFU, TAOK1 / Fold change vs veh, TAOK1 / RFU, ACBD3 / Fold change vs veh, ACBD3 / RFU, TMA16 / Fold change vs veh, TMA16 / RFU, RWDD3 / Fold change vs veh, RWDD3 / RFU, BCAT1 / Fold change vs veh, BCAT1 / RFU, EDEM3 / Fold change vs veh, EDEM3 / RFU, TMEM33 / Fold change vs veh, TMEM33 / RFU, WDR75 / Fold change vs veh, WDR75 / RFU, AHCTF1 / Fold change vs veh, AHCTF1 / RFU, TFRC / Fold change vs veh, TFRC / RFU, ZDHHC17 / Fold change vs veh, ZDHHC17 / RFU, NOM1 / Fold change vs veh, NOM1 / RFU, ARL8B / Fold change vs veh, ARL8B / RFU, ZBTB11 / Fold change vs veh, ZBTB11 / RFU, TAMM41 / Fold change vs veh, TAMM41 / RFU, KIAA1704 /// LOC100996395 / Fold change vs veh, KIAA1704 /// LOC100996395 / RFU, ING1 / Fold change vs veh, ING1 / RFU, TRMT61B / Fold change vs veh, TRMT61B / RFU, FUBP3 / Fold change vs veh, FUBP3 / RFU, TP53 / Fold change vs veh, TP53 / RFU, TNKS2 / Fold change vs veh, TNKS2 / RFU, ZFP14 / Fold change vs veh, ZFP14 / RFU, ACTR2 / Fold change vs veh, ACTR2 / RFU, PPP3R1 / Fold change vs veh, PPP3R1 / RFU, PIK3R1 / Fold change vs veh, PIK3R1 / RFU, HNRNPA1 / Fold change vs veh, HNRNPA1 / RFU, RNF170 / Fold change vs veh, RNF170 / RFU, ZNF28 / Fold change vs veh, ZNF28 / RFU, RNGTT / Fold change vs veh, RNGTT / RFU, OGT / Fold change vs veh, OGT / RFU, BRD1 / Fold change vs veh, BRD1 / RFU, MARS / Fold change vs veh, MARS / RFU, ZNF655 / Fold change vs veh, ZNF655 / RFU, FAHD1 / Fold change vs veh, FAHD1 / RFU, BDP1 / Fold change vs veh, BDP1 / RFU, LRRCC1 / Fold change vs veh, LRRCC1 / RFU, ARID1A / Fold change vs veh, ARID1A / RFU, ZNF146 / Fold change vs veh, ZNF146 / RFU, ZNF330 / Fold change vs veh, ZNF330 / RFU, GPN3 / Fold change vs veh, GPN3 / RFU, C9orf123 / Fold change vs veh, C9orf123 / RFU, N4BP2L2 / Fold change vs veh, N4BP2L2 / RFU, ARFIP1 / Fold change vs veh, ARFIP1 / RFU, FAM179B / Fold change vs veh, FAM179B / RFU, BCL10 / Fold change vs veh, BCL10 / RFU, UHRF1BP1L / Fold change vs veh, UHRF1BP1L / RFU, BET1 / Fold change vs veh, BET1 / RFU, CNOT2 / Fold change vs veh, CNOT2 / RFU, ZNF268 / Fold change vs veh, ZNF268 / Fold change vs veh, ZNF507 / RFU, DGCR2 / Fold change vs veh, DGCR2 / RFU, WDSUB1 / Fold change vs veh, WDSUB1 / Fold change vs veh, HSP90B1 /// MIR3652 / RFU, ADSS / Fold change vs veh, ADSS / RFU, GK / Fold change vs veh, GK / RFU, ZNF148 / Fold change vs veh, ZNF148 / RFU, TAF9 / Fold change vs veh, TAF9 / RFU, SLC1A5 / Fold change vs veh, SLC1A5 / RFU, SLMO2 / Fold change vs veh, SLMO2 / RFU, ABCC4 / Fold change vs veh, ABCC4 / RFU, LOC101060439 /// RAP1B / Fold change vs veh, LOC101060439 /// RAP1B / RFU, RFX7 / Fold change vs veh, RFX7 / RFU, GTPBP10 / Fold change vs veh, GTPBP10 / RFU, CNEP1R1 / Fold change vs veh, CNEP1R1 / RFU, BIVM-ERCC5 /// ERCC5 / Fold change vs veh, BIVM-ERCC5 /// ERCC5 / RFU, ILF3 / Fold change vs veh, ILF3 / RFU 11762660_at / Fold change /veh 11762660_at / RFU VCAN (11757783_s_at) / Fold change /veh VCAN (11757783_s_at) / RFU DDX43 (11728927_at) / Fold change /veh DDX43 (11728927_at) / RFU KRT8 (11758188_x_at) / Fold change /veh KRT8 (11758188_x_at) / RFU NKD1 (11759106_at) / Fold change /veh NKD1 (11759106_at) / RFU SRD5A1 (11742802_a_at) / Fold change /veh SRD5A1 (11742802_a_at) / RFU TPSAB1 /// TPSB2 (11721975_s_at) / Fold change /veh TPSAB1 /// TPSB2 (11721975_s_at) / RFU GSTM3 (11746129_a_at) / Fold change /veh GSTM3 (11746129_a_at) / RFU IL23R (11737362_x_at) / Fold change /veh IL23R (11737362_x_at) / RFU TMEM51 (11727254_a_at) / Fold change /veh TMEM51 (11727254_a_at) / RFU PIWIL2 (11732686_x_at) / Fold change /veh PIWIL2 (11732686_x_at) / RFU ORM1 (11744905_x_at) / Fold change /veh ORM1 (11744905_x_at) / RFU CCDC152 (11743942_at) / Fold change /veh CCDC152 (11743942_at) / RFU ECM1 (11717891_a_at) / Fold change /veh ECM1 (11717891_a_at) / RFU IL23R (11748794_a_at) / Fold change /veh IL23R (11748794_a_at) / RFU TNFAIP8L3 (11732012_x_at) / Fold change /veh TNFAIP8L3 (11732012_x_at) / RFU MBOAT4 (11741988_at) / Fold change /veh MBOAT4 (11741988_at) / RFU 11764193_at / Fold change /veh 11764193_at / RFU TMEM53 (11763286_at) / Fold change /veh TMEM53 (11763286_at) / RFU MAGEB2 (11727129_at) / Fold change /veh MAGEB2 (11727129_at) / RFU TMEM200A (11744735_a_at) / Fold change /veh TMEM200A (11744735_a_at) / RFU CCDC152 (11751479_a_at) / Fold change /veh CCDC152 (11751479_a_at) / RFU FAM211A (11726209_a_at) / Fold change /veh FAM211A (11726209_a_at) / RFU RGS16 (11746705_a_at) / Fold change /veh RGS16 (11746705_a_at) / RFU VCAN (11755009_s_at) / Fold change /veh VCAN (11755009_s_at) / RFU RHOB (11743442_s_at) / Fold change /veh RHOB (11743442_s_at) / RFU RGS16 (11720943_a_at) / Fold change /veh RGS16 (11720943_a_at) / RFU RGS16 (11720944_at) / Fold change /veh RGS16 (11720944_at) / RFU, VPS4B / Fold change vs veh, VPS4B / RFU, CREB1 / Fold change vs veh, CREB1 / RFU, DNAJC13 / Fold change vs veh, DNAJC13 / RFU, GNAQ / Fold change vs veh, GNAQ / RFU, CDK5R1 / Fold change vs veh, CDK5R1 / RFU, ZRANB3 / Fold change vs veh, ZRANB3 / RFU, CUL4A / Fold change vs veh, CUL4A / RFU, CCNY / Fold change vs veh, CCNY / RFU, UFL1 / Fold change vs veh, UFL1 / RFU, COG3 / Fold change vs veh, COG3 / RFU, DIAPH2 / Fold change vs veh, DIAPH2 / RFU, SKA2 / Fold change vs veh, SKA2 / RFU, AFF3 / Fold change vs veh, AFF3 / RFU, LMF1 / Fold change vs veh, LMF1 / RFU, IPO11 / Fold change vs veh, IPO11 / RFU, DFFB / Fold change vs veh, DFFB / RFU, FOXP1 / Fold change vs veh, FOXP1 / RFU, CARD8 / Fold change vs veh, CARD8 / RFU, STRN3 / Fold change vs veh, STRN3 / RFU, ADK / Fold change vs veh, ADK / RFU, RASSF2 / Fold change vs veh, RASSF2 / RFU, WIPF1 / Fold change vs veh, WIPF1 / RFU, LARP1B / Fold change vs veh, LARP1B / RFU, RASA1 / Fold change vs veh, RASA1 / RFU, RB1 / Fold change vs veh, RB1 / RFU, PPFIA1 / Fold change vs veh, PPFIA1 / RFU, MAT2A / Fold change vs veh, MAT2A / RFU, CCT5 / Fold change vs veh, CCT5 / RFU, WDR92 / Fold change vs veh, WDR92 / RFU, CUX1 / Fold change vs veh, CUX1 / RFU, TTC7A / Fold change vs veh, TTC7A / RFU, TMEM135 / Fold change vs veh, TMEM135 / RFU, DEPTOR / Fold change vs veh, DEPTOR / RFU, CPM / Fold change vs veh, CPM / RFU, DNAJB6 / Fold change vs veh, DNAJB6 / RFU, CACNA2D3 / Fold change vs veh, CACNA2D3 / RFU, DTX4 / Fold change vs veh, DTX4 / RFU, TFCP2 / Fold change vs veh, TFCP2 / RFU, GMCL1 /// GMCL1P1 / Fold change vs veh, GMCL1 /// GMCL1P1 / RFU, AEBP2 / Fold change vs veh, AEBP2 / RFU, SNHG1 /// SNORD22 /// SNORD25 /// SNORD26 /// SNORD27 /// SNORD28 /// SNORD29 /// SNORD31 / Fold change vs veh, SNHG1 /// SNORD22 /// SNORD25 /// SNORD26 /// SNORD27 /// SNORD28 /// SNORD29 /// SNORD31 / Fold change (Aza/veh), C12orf56 (ProbeSet 11735607_a_at) / Fold change (ACY-1035/veh), C12orf56 (ProbeSet 11735607_a_at) / Fold change (Aza/veh), FGFR1OP (ProbeSet 11751329_s_at) / Fold change (ACY-1035/veh), FGFR1OP (ProbeSet 11751329_s_at) / Fold change (Aza/veh), VPS36 (ProbeSet 11739960_a_at) / Fold change (ACY-1035/veh), VPS36 (ProbeSet 11739960_a_at) / RFU SYPL1 (11715823_x_at) / Fold change /veh SYPL1 (11715823_x_at) / RFU IGFBP7 (11715501_s_at) / Fold change /veh IGFBP7 (11715501_s_at) / RFU REEP3 (11722064_at) / Fold change /veh REEP3 (11722064_at) / RFU IGLL1 (11728026_x_at) / Fold change /veh IGLL1 (11728026_x_at): dose or concentration left out as unconfirmed
Conditions: ProbeSet 11732154_at; LIST B

Q: For Nc1ncn([C@@H]2O[C@H](CO)[C@@H](O)[C@H]2O)c(=O)n1 [azacitidine], which “Fold change vs veh, OGT” value is on record?
A: Its value is 0.90.
